Data reported in ChEMBL document CHEMBL3045363, “Synthesis of 3-methylflavones and their antioxidant and antibacterial activities” (Med Chem Res, 2012).
Values after ≈ are worked out from the molar mass of the structure shown.

Columns and labels:
Assay type in all cases: functional
Bacillus subtilis = assay: Antimicrobial activity against Bacillus subtilis at 1 ug/ul after 24 hr by agar diffusion method
Escherichia coli = assay: Antimicrobial activity against Escherichia coli at 1 ug/ul after 24 hr by agar diffusion method
[1] = Antioxidant activity assessed as DPPH scavenging activity after 20 min by spectrophotometry
Bacillus cereus = assay: Antimicrobial activity against Bacillus cereus at 1 ug/ul after 24 hr by agar diffusion method
Klebsiella pneumoniae = assay: Antimicrobial activity against Klebsiella pneumoniae at 1 ug/ul after 24 hr by agar diffusion method
Staphylococcus aureus = assay: Antimicrobial activity against Staphylococcus aureus at 1 ug/ul after 24 hr by agar diffusion method
Pseudomonas aeruginosa = assay: Antimicrobial activity against Pseudomonas aeruginosa at 1 ug/ul after 24 hr by agar diffusion method

SMILES	growth inhibition (GI) (Bacillus subtilis) [%]	growth inhibition (GI) (Escherichia coli) [%]	IC50 [1] [µg/mL]	growth inhibition (GI) (Bacillus cereus) [%]	growth inhibition (GI) (Klebsiella pneumoniae) [%]	growth inhibition (GI) (Staphylococcus aureus) [%]	growth inhibition (GI) (Pseudomonas aeruginosa) [%]
Cc1c(-c2ccccc2F)oc2ccccc2c1=O	26	47	208.3 (≈ 819 µM)	60	52	55	47
Cc1cccc(-c2oc3ccccc3c(=O)c2C)c1	69	50	250 (≈ 999 µM)	80	70	76	56
COc1ccccc1-c1oc2ccccc2c(=O)c1C	59	52	142.86 (≈ 536 µM)	51	62	61	45
COc1cccc(-c2oc3ccccc3c(=O)c2C)c1	74	50	156.25 (≈ 587 µM)	65	40	43	59
Cc1c(-c2ccccc2O)oc2ccccc2c1=O	83	38	79.37 (≈ 315 µM)	50	70	70	43
Cc1c(-c2ccc(N(C)C)cc2)oc2ccccc2c1=O	55	51	104.16 (≈ 373 µM)	50	50	58	46
Cc1ccc(-c2oc3ccccc3c(=O)c2C)cc1	38	42	102.04 (≈ 408 µM)	62	60	60	43
Cc1c(-c2ccc(N(C)C)cc2)oc2cc(O)ccc2c1=O	50	29	58.82 (≈ 199 µM)	57	50	55	51
Cc1ccccc1-c1oc2ccccc2c(=O)c1C	49	40	156.25 (≈ 624 µM)	50	40	53	52
Cc1c(-c2ccccc2Cl)oc2ccccc2c1=O	25	51	192.3 (≈ 710 µM)	60	59	57	44
COc1ccc(-c2oc3ccccc3c(=O)c2C)cc1	46	41	100 (≈ 376 µM)	68	60	66	46
Cc1c(-c2ccc(O)cc2)oc2ccccc2c1=O	56	47	104 (≈ 412 µM)	81	80	74	37
COc1ccc2c(=O)c(C)c(-c3ccc(Cl)cc3)oc2c1	46	28	80.64 (≈ 268 µM)	90	87	65	28
Cc1c(-c2ccc([N+](=O)[O-])cc2)oc2ccccc2c1=O	60	31	131.57 (≈ 468 µM)	89	85	77	57
Cc1c(-c2ccccc2Br)oc2ccccc2c1=O	39	34	70.42 (≈ 223 µM)	80	78	81	42
Cc1c(-c2ccc(Cl)cc2)oc2ccccc2c1=O	68	33	98.04 (≈ 362 µM)	85	81	74	47
Cc1c(-c2ccc(F)cc2)oc2ccccc2c1=O	81	31	113.64 (≈ 447 µM)	75	70	73	48
Cc1c(-c2ccc(Br)cc2)oc2ccccc2c1=O	82	27	111.11 (≈ 353 µM)	62	72	58	51
COc1ccc2c(=O)c(C)c(-c3ccccc3)oc2c1	63	34	200 (≈ 751 µM)	50	41	59	51
Cc1c(-c2ccccc2)oc2ccccc2c1=O [3-METHYL-2-PHENYL-4H-CHROMEN-4-ONE]	44	41	106.38 (≈ 450 µM)	80	75	47	48
O=C1O[C@H]([C@@H](O)CO)C(O)=C1O [ASCORBIC ACID]			17.6 (≈ 99.9 µM)				
